Assay results as given in patent US6908919B2, “Substituted polycyclic aryl and heteroaryl pyrazinones useful for selective inhibition of the coagulation cascade” (Pharmacia Corporation, priority 1999, dated 2005).
Like-named read-outs stand apart in the source and are kept apart here.

What was measured:
[1] = molecular target: T1, recombinant soluble tissue factor and recombinant human factor VIIa (TF-VIIa) (Homo sapiens, UniProt P08709); test: TF-VIIa Assay; type: biochemical
T1 construct: conversion of coagulation factor VII to VIIa by Xa; purchased American Diagnostica, Greenwich Conn; host or cells: VIIa purchased; soluble TF made in house in E. coli
T1 sequence (P08709 61-212 limits assumed): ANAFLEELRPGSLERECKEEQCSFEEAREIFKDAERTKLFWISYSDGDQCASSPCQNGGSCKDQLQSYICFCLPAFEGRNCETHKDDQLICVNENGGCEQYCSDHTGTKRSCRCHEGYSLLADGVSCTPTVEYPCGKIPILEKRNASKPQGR
T1 sequence (P08709 213-466 limits assumed): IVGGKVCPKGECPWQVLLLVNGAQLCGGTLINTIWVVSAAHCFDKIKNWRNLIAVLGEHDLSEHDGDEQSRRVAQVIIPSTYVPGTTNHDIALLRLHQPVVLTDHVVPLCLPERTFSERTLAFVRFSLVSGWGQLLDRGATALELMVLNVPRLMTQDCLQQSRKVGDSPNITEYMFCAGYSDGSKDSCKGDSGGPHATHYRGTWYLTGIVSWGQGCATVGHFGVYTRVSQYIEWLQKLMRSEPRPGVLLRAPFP
T1 sequence (P13726 33-251 partner limits assumed): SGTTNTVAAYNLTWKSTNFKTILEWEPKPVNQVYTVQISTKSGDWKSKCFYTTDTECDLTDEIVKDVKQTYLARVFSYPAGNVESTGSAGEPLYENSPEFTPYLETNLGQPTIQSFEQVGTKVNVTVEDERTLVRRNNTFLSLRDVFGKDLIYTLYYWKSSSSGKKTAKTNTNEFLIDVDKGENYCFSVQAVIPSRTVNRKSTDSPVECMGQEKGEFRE

Human factor Xa = Human factor Xa (Homo sapiens, UniProt P00742); test: Xa Assay; type: biochemical; parameters: purchased Enzyme Research Laboratories, South Bend Ind; settings: for % Inhibition Factor Xa at 100 μM / inhibition at 100 µM: at 100 μM inhibitor
Chain of Human factor Xa (P00742 41-179 limits assumed): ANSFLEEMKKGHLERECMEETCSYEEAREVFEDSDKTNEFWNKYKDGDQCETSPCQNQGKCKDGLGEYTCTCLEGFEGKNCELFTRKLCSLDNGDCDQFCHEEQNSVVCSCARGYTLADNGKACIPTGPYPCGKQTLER
Chain of Human factor Xa (P00742 235-488 limits assumed): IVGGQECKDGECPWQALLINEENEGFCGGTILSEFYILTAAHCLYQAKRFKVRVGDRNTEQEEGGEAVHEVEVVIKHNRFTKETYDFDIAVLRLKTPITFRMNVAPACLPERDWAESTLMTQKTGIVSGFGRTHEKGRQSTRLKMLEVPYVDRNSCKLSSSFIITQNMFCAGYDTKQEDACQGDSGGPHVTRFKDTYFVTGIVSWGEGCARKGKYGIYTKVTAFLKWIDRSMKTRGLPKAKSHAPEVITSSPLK

SMILES | % Inhibition TF-VIIa (100 µM) ([1]; inhibitor at 100 µM) [%] | % Inhibition Factor Xa (100 µM) (Human factor Xa; inhibitor at 100 µM) [%] | other results
COc1ccc(-c2c(Cl)nc(NCc3ccccc3)c(=O)n2CC(=O)NCCc2ccncc2)cc1 [Example E-0033] | 0 | 0 | 
O=C(Cn1c(CCc2ccccc2)c(Cl)nc(NCCc2ccncc2)c1=O)NCCc1ccncc1 [Example E-0070] | 0 | 0 | 
C[C@H](Nc1nc(Cl)c(-c2cccc(N)c2)n(CC(=O)NCc2ccc(C(=N)N)cc2)c1=O)C(=O)O [Example 135] |  |  | IC50 ([1]; read-out: IC50 TF-VIIa): 6400 nM; % Inhibition Factor Xa at 100 μM (Human factor Xa): 6% at 100 μM
O=C(Cn1c(Cc2ccccc2)c(Cl)nc(NCCc2ccccc2)c1=O)NCCc1ccncc1 [Example E-0058] | 0 | 0 | 
N=C(N)c1ccc(CNC(=O)Cn2c(-c3ccc(Cl)cc3)c(Cl)nc(NCc3ccncc3)c2=O)cc1 [1471-19] |  |  | % Inhibition TF-VIIa (30 µM) ([1]; at 30 µM inhibitor): 33%; % Inhibition Factor Xa (30 µM) (Human factor Xa; at 30 µM inhibitor): 26%
O=C(Cn1c(Cc2ccccc2)c(Cl)nc(NCc2ccncc2)c1=O)NCCc1ccncc1 [Example E-0064] | 0 | 0 | 
COc1ccc(-c2c(Cl)nc(NCc3ccccc3)c(=O)n2CC(=O)NCCc2ccncc2)cc1 [Example E-0097] | 0 | 3 | 
O=C(Cn1c(-c2ccc(Cl)cc2)c(Cl)nc(NCCc2ccccc2)c1=O)NCCc1ccncc1 [Example E-0018] | 1 | 0 | 
O=C(Cn1c(-c2ccc(Cl)cc2)c(Cl)nc(NCCc2ccc(Cl)cc2)c1=O)NCCc1ccncc1 [Example E-0020] | 0 | 1 | 
N=C(N)c1ccc(CNC(=O)Cn2c(-c3ccc(C(=N)N)cc3)c(Cl)nc(NC3CCC3)c2=O)cc1 [Example 113] |  |  | IC50 ([1]; read-out: IC50 TF-VIIa): 6190 nM; IC50 (Human factor Xa): 14000 nM
N=C(N)c1ccc(CNC(=O)Cn2c(-c3ccccc3)c(Cl)nc(NC3Cc4ccccc4C3)c2=O)cc1 [1507-08] |  |  | % Inhibition TF-VIIa (30 µM) ([1]; at 30 µM inhibitor): 7%; % Inhibition Factor Xa (30 µM) (Human factor Xa; at 30 µM inhibitor): 1%
Cc1c(Cl)nc(NCCc2cccc(Cl)c2)c(=O)n1CC(=O)NCCc1ccncc1 [Example E-0003] | 0 | 0 | 
Cc1c(Cl)nc(NCCc2ccc(Cl)cc2)c(=O)n1CC(=O)NCCc1ccncc1 [Example E-0004] | 0 | 0 | 
CC(C)Nc1nc(Cl)c(-c2cc(N)cc(C(=O)NCc3ccc(C(C)(C)C)cc3)c2)n(CC(=O)NCc2ccc(C(=N)N)cc2)c1=O [Example 128-7] |  |  | IC50 ([1]; read-out: IC50 TF-VIIa): 242 nM; inhibition at 100 µM (Human factor Xa): 40%
CC(C)CNC(=O)c1cc(N)cc(-c2c(Cl)nc(NC(C)C)c(=O)n2CC(=O)NCc2ccc(C(=N)N)cc2)c1 [Example 128-14] |  |  | IC50 ([1]; read-out: IC50 TF-VIIa): 7.4 nM; inhibition at 100 µM (Human factor Xa): 24%
O=C(Cn1c(Cc2ccccc2)c(Cl)nc(NCCN2CCOCC2)c1=O)NCCc1ccncc1 [Example E-0063] | 0 | 0 | 
Cc1c(Cl)nc(NCCc2ccccc2)c(=O)n1CC(=O)NCCc1ccncc1 [Example E-0002] | 0 | 0 | 
Cc1c(Cl)nc(NCCc2cccnc2)c(=O)n1CC(=O)NCCc1ccncc1 [Example E-0005] | 0 | 0 | 
O=C(Cn1c(-c2ccccc2)c(Cl)nc(NCCN2CCOCC2)c1=O)NCCc1ccncc1 [Example E-0015] | 0 | 0 | 
N=C(N)c1ccc(CNC(=O)Cn2c(-c3ccc(-c4ccccc4)cc3)c(Cl)nc(NCCc3ccc(Cl)cc3)c2=O)cc1 [Example 22] |  |  | % Inhibition TF-VIIa (30 µM) [1]: 0% @ 30; % Inhibition Factor Xa (30 µM) (Human factor Xa): 13% @ 30
O=C(Cn1c(-c2ccccc2)c(Cl)nc(NCc2ccccc2)c1=O)NCCc1ccncc1 [Example E-0009] | 0 | 1 | 
O=C(Cn1c(-c2cccc(Cl)c2)c(Cl)nc(NCCc2ccccc2)c1=O)NCCc1cccnc1 [Example E-0077] | 0 | 3 | 
COc1ccc(-c2c(Cl)nc(NCCN3CCOCC3)c(=O)n2CC(=O)NCc2ccc(C(=N)N)cc2)cc1 [1471-36] |  |  | % Inhibition TF-VIIa (30 µM) ([1]; at 30 µM inhibitor): 11%; % Inhibition Factor Xa (30 µM) (Human factor Xa; at 30 µM inhibitor): 6%
O=C(Cn1c(-c2ccccc2)c(Cl)nc(NCCc2ccc(Cl)cc2)c1=O)NCCc1ccncc1 [Example E-0012] | 0 | 0 | 
CCc1c(Cl)nc(NCCc2cccc(Cl)c2)c(=O)n1CC(=O)NCc1ccc(C(=N)N)cc1 [1471-62] |  |  | % Inhibition TF-VIIa (30 µM) ([1]; at 30 µM inhibitor): 4%; % Inhibition Factor Xa (30 µM) (Human factor Xa; at 30 µM inhibitor): 0%
O=C(Cn1c(-c2ccc(Cl)cc2)c(Cl)nc(NCCc2cccnc2)c1=O)NCCc1ccncc1 [Example E-0021] | 0 | 1 | 

SMILES | % Inhibition TF-VIIa (100 µM) ([1]; inhibitor at 100 µM) [%] | % Inhibition Factor Xa (100 µM) (Human factor Xa; inhibitor at 100 µM) [%] | other results
O=C(Cn1c(-c2ccc(Cl)cc2)c(Cl)nc(NCCc2ccncc2)c1=O)NCCc1ccncc1 [Example E-0030] | 0 | 0 | 
O=C(Cn1c(-c2cccc(Cl)c2)c(Cl)nc(NCc2ccccc2)c1=O)NCCc1ccncc1 [Example E-0073] | 0 | 2 | 
COc1ccc(-c2c(Cl)nc(NCc3ccccc3)c(=O)n2CC(=O)NCc2ccc(C(=N)N)cc2)cc1 [1471-33] |  |  | % Inhibition TF-VIIa (30 µM) ([1]; at 30 µM inhibitor): 31%; % Inhibition Factor Xa (30 µM) (Human factor Xa; at 30 µM inhibitor): 22%
O=C(Cn1c(-c2ccc(Cl)cc2)c(Cl)nc(NCc2ccncc2)c1=O)NCCc1ccncc1 [Example E-0024] | 0 | 0 | 
COc1ccc(CCNC(=O)c2cc(N)cc(-c3c(Cl)nc(NC(C)C)c(=O)n3CC(=O)NCc3ccc(C(=N)N)cc3)c2)cc1 [Example 128-20] |  |  | IC50 ([1]; read-out: IC50 TF-VIIa): 33 nM; inhibition at 100 µM (Human factor Xa): 39%
Nc1cccc(-c2c(Cl)nc(NC3CCC3)c(=O)n2CC(=O)NCCc2ccccc2)c1 [Example 89] |  |  | % Inhibition TF-VIIa (30 µM) ([1]; at 30 µM inhibitor): 5% @ 30; % Inhibition Factor Xa (30 µM) (Human factor Xa; at 30 µM inhibitor): 5% @ 30
N=C(N)c1ccc(CNC(=O)Cn2c(-c3ccccc3)c(Cl)nc(NCc3ccccn3)c2=O)cc1 [1507-24] |  |  | % Inhibition TF-VIIa (30 µM) ([1]; at 30 µM inhibitor): 0%; % Inhibition Factor Xa (30 µM) (Human factor Xa; at 30 µM inhibitor): 15%
N=C(N)c1ccc(CNC(=O)C(Cc2ccccc2)n2c(-c3ccccc3)c(Cl)nc(NCCc3cccc(Cl)c3)c2=O)cc1 (centres unmarked) [Example 1517-20] |  |  | % Inhibition TF-VIIa (30 µM) ([1]; at 30 µM): 22%; % Inhibition Factor Xa (30 µM) (Human factor Xa; at 30 µM): 0%
N=C(N)c1ccc(CNC(=O)Cn2c(-c3ccccc3)c(Cl)nc(NCc3cc(F)cc(C(F)(F)F)c3)c2=O)cc1 [1512-29] |  |  | % Inhibition TF-VIIa (30 µM) ([1]; at 30 µM inhibitor): 47%; % Inhibition Factor Xa (30 µM) (Human factor Xa; at 30 µM inhibitor): 4%
O=C(Cn1c(-c2ccc(-c3ccccc3)cc2)c(Cl)nc(NCCc2ccc(Cl)cc2)c1=O)NCCc1ccncc1 [Example E-0052] |  |  | % Inhibition TF-VIIa (100 µM) [1]: 0%; % Inhibition Factor Xa (100 µM) (Human factor Xa): 0%
O=C(Cn1c(-c2ccc(-c3ccccc3)cc2)c(Cl)nc(NCCc2cccnc2)c1=O)NCCc1ccncc1 [Example E-0053] |  |  | % Inhibition TF-VIIa (100 µM) [1]: 0%; % Inhibition Factor Xa (100 µM) (Human factor Xa): 0%
O=C(Cn1c(-c2cccc(Cl)c2)c(Cl)nc(NCCc2ccc(Cl)cc2)c1=O)NCCc1cccnc1 [Example E-0095] | 2 | 4 | 
CC(C)Nc1nc(Cl)c(-c2cc(N)cc(C(=O)NCc3ccc(Cl)cc3Cl)c2)n(CC(=O)NCc2ccc(C(=N)N)cc2)c1=O [Example 128-5] |  |  | IC50 ([1]; read-out: IC50 TF-VIIa): 84.7 nM; % Inhibition Factor Xa at 100 μM (Human factor Xa): 43% at 100 μM
O=C(Cn1c(-c2ccc3c(c2)OCO3)c(Cl)nc(NCCc2cccnc2)c1=O)NCCc1ccncc1 [Example E-0045] | 0 | 0 | 
O=C(Cn1c(-c2ccc(Cl)cc2)c(Cl)nc(NCCN2CCOCC2)c1=O)NCCc1ccncc1 [Example E-0023] | 0 | 0 | 
COc1ccc(-c2c(Cl)nc(NCCc3ccc(Cl)cc3)c(=O)n2CC(=O)NCCc2ccncc2)cc1 [Example E-0036] | 0 | 0 | 
O=C(Cn1c(-c2ccc3c(c2)OCO3)c(Cl)nc(NCc2ccncc2)c1=O)NCCc1ccncc1 [Example E-0048] | 0 | 0 | 
N=C(N)NCC#CCNC(=O)Cn1c(-c2ccccc2)cnc(NCCc2ccccc2)c1=O [Example 36] |  |  | % Inhibition TF-VIIa (30 µM) ([1]; at 30 µM inhibitor): 5%; % Inhibition Factor Xa (30 µM) (Human factor Xa; at 30 µM inhibitor): 0%
COc1ccc(-c2c(Cl)nc(NCc3ccccc3)c(=O)n2CC(=O)NCCc2cccnc2)cc1 [Example E-0098] | 0 | 2 | 
N=C(N)c1ccc(CNC(=O)Cn2c(-c3ccc(-c4ccccc4)cc3)c(Cl)nc(NCCc3cccnc3)c2=O)cc1 [Example 21] |  |  | % Inhibition TF-VIIa (30 µM) [1]: 8% @ 30; % Inhibition Factor Xa (30 µM) (Human factor Xa): 21% @ 30
COc1ccc(-c2c(Cl)nc(NCCc3cccc(Cl)c3)c(=O)n2CC(=O)NCCc2cccnc2)cc1 [Example E-0104] | 3 | 5 | 
O=C(Cn1c(CCc2ccccc2)c(Cl)nc(NCCc2cccc(Cl)c2)c1=O)NCCc1ccncc1 [Example E-0067] | 0 | 0 | 
CC(CNc1nc(Cl)c(-c2cccc(N)c2)n(CC(=O)NCc2ccc(C(=N)N)cc2)c1=O)C(=O)O (centres unmarked) [Example 129] |  |  | IC50 ([1]; cell adds 'at 100 μM'): 58 nM; inhibition at 100 µM (Human factor Xa): 22%
O=C(Cn1c(-c2ccc3c(c2)OCO3)c(Cl)nc(NCCN2CCOCC2)c1=O)NCCc1ccncc1 [Example E-0047] | 0 | 0 | 
COc1ccc(-c2c(Cl)nc(NCCc3cccnc3)c(=O)n2CC(=O)NCCc2ccncc2)cc1 [Example E-0037] | 0 | 0 | 
CC(C)Nc1nc(Cl)c(-c2cc(N)cc(C(=O)NC(C)c3ccccc3)c2)n(CC(=O)NCc2ccc(C(=N)N)cc2)c1=O (centres unmarked) [Example 128-3] |  |  | IC50 ([1]; read-out: IC50 TF-VIIa): 8.2 nM; inhibition at 100 µM (Human factor Xa): 40%
